The values below come from a melting point compilation (Tetko et al.; mined from patent text by program, amines drawn as free bases though some values may be those of a salt).

Molecules are shown by their SMILES.

As usually defined, the melting point is the temperature, or range, at which the solid turns liquid. Regarding `COC(=O)C1=CCC2C(CCC3C(C)(C)CCCC23C)C(=O)C1` (stereo unspecified), the melting point lay in the range of 93 to 94 °C.
Turning to `CCOC1Nc2c(OC(C)=O)cccc2C(=O)N2CCCC12` (stereo unspecified), the melting point lay in the range of 146 to 149 °C.
Take `COC(=O)c1ccc(C(O)c2cc3cc(Cl)ccc3n2S(=O)(=O)c2ccc(C(C)C)cc2)cc1` (stereo unspecified): the melting point came to 71 °C.
For the compound `OCCCCOc1ccc2cc(O)ccc2c1`, the melting point was 148 to 150 °C.
Turning to `CCOCCSC(F)(F)C(O)(Cn1cncn1)c1ccc(F)cc1F` (stereo unspecified), the melting point was 61 to 63 °C.
Consider `CC(C)(C)c1cc(-c2nn(CCOC(=O)c3cccnc3)c3ncccc23)cc(C(C)(C)C)c1O`, for which the melting point lay in the range of 134 to 136 °C.
In turn, `COc1cc2c(cc1OC)-c1c(C=O)c(C#N)cn1CC2` yielded a melting point of 220 to 221 °C.
Then `CCc1nn2ccccc2c1NC(=O)COC`, with 106 to 108 °C.
On to `CCOC1(OCC)C[C@@H](C(=O)O)[C@@H]1C(=O)O` (relative stereo), for which the melting point was in the range of 118 to 120 °C.
Then `Cc1cc([N+](=O)[O-])ccc1-c1ccc(-c2ccc([N+](=O)[O-])cc2C)o1`, with 242 to 243 °C; and `Cc1ccc(NC(=O)C(C)(C)C)c(-c2cncc(Cl)n2)c1`, with 80 to 83 °C.
`CNC(=O)NC1CCCc2sccc21` (stereo unspecified) displayed a melting point of 183 to 186 °C.
In the case of `Nc1nc2c(ncn2[C@@H]2CO[C@H](CO)C2)c(=O)[nH]1`, the melting point is 261 to 263 °C.
On to `C#CC12CC3CC(CC(C3)C1)C2`, for which the melting point fell in the range of 80 to 82 °C.
The compound `CC#CC(=O)N[C@H]1CC[C@H](CCN2CCC(c3cccc4c3CCO4)CC2)CC1` yielded a melting point of 195 °C.
Turning to `COc1cc(CNC(C)=O)c(Br)cc1O`, the melting point is > 300 °C.
The compound `CC12CCC3C(CC=C4C=C(OCc5ccccc5)CCC43C)C1CCC2=O` (stereo unspecified) yielded a melting point of 172 to 178 °C.
`COc1ccc(C(=O)Nc2ccccc2)cc1NS(=O)(=O)c1cccc([N+](=O)[O-])c1` showed a melting point of 208 to 210 °C.
Then `CCCCCCCCCCC[C@H](CC(=O)N[C@@H](CO)C(=O)OCc1ccccc1)OC(=O)CCCCCCC`, with 50 to 51 °C; and `Cc1noc(-c2ncn3c2[C@@H]2CCCN2C(=O)c2cc(F)ccc2-3)n1`, with 248 to 249 °C.
Consider `Cc1cc(C)n(-c2nc(Nc3ccccn3)c3ccccc3n2)n1`, for which the melting point fell in the range of 126 to 127 °C.
For `CCS(=O)(=O)c1cc(C(=O)NCC2CCCN2CC2CC2)c(OC)cc1N` (stereo unspecified), the melting point amounted to 181 °C.
Then `CCCn1cc2c(C3C(=O)Nc4ccc(Br)cc43)nc(NCC(C)N)nc2n1` (stereo unspecified), with 247 to 250 °C.
Consider `COC1=CCC2=C(CCC3C2CCC2(C)C(O)CCC32)C1` (stereo unspecified), for which the melting point worked out at 110 °C.
The compound `CC(c1ccc(-c2ccccc2)s1)N(O)C(N)=O` (stereo unspecified) gave a melting point of 150 to 152 °C.
On to `NC(=O)c1cccc(CSCCNC(=O)c2c(Cl)cccc2Cl)c1`, for which the melting point lay within 148 to 150 °C.
The compound `CCC(CC)n1cc(C)nc(N2CCc3cc(OC)cc(C)c32)c1=O` came in with a melting point of 138 to 140 °C.
For the compound `CC(=O)Nc1cc(NC(C)=C2C(=O)OC(=O)C(C(C)=O)=C2O)cc([N+](=O)[O-])c1`, the melting point is > 270 °C.
In turn, `O=C(O)CCC(=O)c1ccc(F)c(Br)c1` registered a melting point of 108 to 110 °C.
`CC(C)(C)C(NC(=O)c1ccccc1)Nc1c(Nc2cccnc2)c(=O)c1=O` (stereo unspecified) yielded a melting point of 246 to 247 °C.
Then `CCOC(=O)CNc1ccc(OCc2ccccc2)cc1`, with 70 °C; and `Cc1nc2ccc3c(c2o1)OC(CN1CCC2(CC1)C(=O)NCN2c1ccccc1)CO3` (stereo unspecified), with 240 °C; and `COC(=O)c1oc2c(sc3ccccc32)c1O`, with 124 to 125 °C.
In the case of `O=C(O)CCCCCCCc1cncc2ccccc12`, the melting point is 99 to 100 °C.
`CCOc1ccccc1C1OC(=O)NC1=O` (stereo unspecified) gave a melting point of 165 to 167 °C.
Regarding `O=C1Cc2cc(C3=NNC(=O)C4CCC34)ccc2N1` (stereo unspecified), the melting point lay in the range of 309 to 312 °C.
Then `O=C(O)C1CCc2nc3cc(Cl)ccc3c(Cl)c2C1` (stereo unspecified), with > 250 °C.
Take `CCCC1=C(C#N)C(c2ccccc2OC)c2c[nH]nc2N1` (stereo unspecified): the melting point was 203 °C.
Turning to `CCCC(C)(Sc1ccc(OCCn2c(CC)nc3ccccc3c2=O)cc1)C(=O)OCC` (stereo unspecified), the melting point was 148 to 150 °C.
On to `NCCSc1nc(-c2ccccc2)c(-c2ccccc2)[nH]1`, for which the melting point was 152 to 154 °C.
Take `CC(c1ccc(N)cc1)n1ccnc1` (stereo unspecified): the melting point came out at 130 °C.
Compound `Nc1nc(Cl)cc(NCC2CC2(Cl)Cl)n1` (stereo unspecified) came in with a melting point of 78 to 79 °C.
`CCc1[nH]n(-c2c(Cl)cc(C(=O)O)cc2Cl)c2nc(Cc3ccc(OC)cc3)nc(=O)c1-2` had a melting point of 277 °C.
On to `COc1ccc(C(=CC#N)c2ccc(OC)c(OC)c2)cc1NC(C)=O`, for which the melting point lay within 139 to 141 °C.
As for `S=C(Nc1ccc(Cl)cc1)Nc1ncccc1OCc1ccccc1`, the figure is 140 to 143 °C; as for `CC(C)n1nc(-c2sc(NC(=O)COc3ccccc3)nc2-c2ccccc2)ccc1=O`, 243 to 244 °C.
The compound `O=C1Nc2cccc(-c3cnc4ccccc4c3)c2C12COc1cc3c(cc12)OCCO3` (stereo unspecified) yielded a melting point of 221 to 224 °C.
`CCCn1cnc(NC)c1C(=O)NCCCCCCOc1ccc(Cl)cc1` returned a melting point of 66 to 67 °C.
`CCCCCCCCCCOc1cc2c(cc1CCC(=O)O)C(=O)c1cc(C(=O)O)ccc1-2` showed a melting point of 218 to 220 °C.
Then `N#Cc1[nH]c2ccccc2c1Cl`, with 150 to 154 °C; and `O=C(O)CCc1cccc(-c2nc(=O)c3ccc(C(F)(F)F)cc3s2)n1`, with 193 °C; and `COc1ccc(N2CCOCC2)c2sc(C(=O)NCC(=O)c3ccsc3)nc12`, with 170 °C.
Then `O=c1oc2cc(N3CCN(CCF)CC3)ccc2cc1-c1nc2ccccc2s1`, with 246 °C; and `Cc1ccccc1C(=O)Nc1ccc(C(=O)N2CCCC(N(C)C)c3ccccc32)c(C)c1` (stereo unspecified), with 183 to 185 °C; and `CC1CCc2nc(N)sc2C1` (stereo unspecified), with 98 to 100 °C.
`N#Cc1c2c(nn1-c1ccc(Cl)cc1F)CCCC2` returned a melting point of 83 to 84 °C.
As for `Oc1ccc2nc(-c3cccc(Cl)c3)oc2c1`, the figure is 246 to 248 °C.
`CCCc1nc2c(N)nc3ccccc3c2n1CCCCN(OC)S(C)(=O)=O`: the melting point lay in the range of 178 to 188 °C.
For `N#CC(=Cc1ccsc1)C(=O)O`, the melting point turned out to be 211 °C.
In turn, `CCN(CC)CC1CCCCN1C(=O)c1ccc(-c2[nH]nc3c2C(=O)c2c(NC(=O)NN4CCOCC4)cccc2-3)s1` (stereo unspecified) gave a melting point of 210 to 212 °C.
Compound `CCCCCCCCCCCCCCCCOc1ccc(OCC(=O)Nc2ccccc2CO)cc1` displayed a melting point of 128 to 131 °C.
`CCOC(=O)c1ccc(NCCOc2ccccc2)cc1` returned a melting point of 126 to 129 °C.
Then `Fc1ccc(Cl)c2sc(CBr)cc12`, with 89 to 90 °C; and `CCc1c(-c2ccc3cn[nH]c3c2)cc(Nc2ccc(N3CCN(CC)CC3)cn2)c2nccn12`, with 217 °C.
In the case of `CCC1(CCCCN2CC=C(c3ccc(Cl)cc3)CC2)C(=O)Nc2ccccc21` (stereo unspecified), the melting point lay within 142 to 145 °C.
On to `CON=Cc1ccccc1OCc1ccccc1C(=NOC)C(=O)OC`, for which the melting point lay within 73 to 76 °C.
In turn, `CN1CCC(N(C)C(=O)CNS(=O)(=O)c2ccc(Nc3nccc(Nc4ccc(F)cc4)n3)cc2)CC1` gave a melting point of 233 to 234 °C.
As for `CC1(C)C(=O)Nc2ccc(-c3coc(C#N)c3)cc21`, the figure is 200 to 201 °C; as for `Cc1cccc(CNC(=O)c2nc3scc(COCc4ccc(C(=O)O)cc4)c3c(=O)[nH]2)c1`, 237 to 239 °C; as for `Nc1ccc(N2C(=O)CNC2=O)cc1`, 230 to 231 °C.
The compound `CN(C)CCOc1cc(-c2ccccc2)on1` returned a melting point of 28 to 29 °C.
In the case of `c1ccc(C2CN=C3NCCN32)cc1` (stereo unspecified), the melting point lay in the range of 167 to 170 °C.
`COc1ccc(O)c(C(C)(O)c2ccccc2)c1` (stereo unspecified) registered a melting point of 114 °C.
With `COC(=O)C1(N(O)C(=O)Cc2c(C)cc(Cl)cc2C)CCN(OC)CC1`, the melting point lay in the range of 228 to 231 °C.
As for `CCCCc1nc(Cl)c(C(=O)OC(C)C)n1Cc1ccc2oc(-c3ccccc3-c3nnn[nH]3)c(Br)c2c1`, the figure is 105 to 106 °C.
As for `CCC(C)C(C)C(=O)Nc1ccc2c(C)cn3c(=O)c(C(=O)OCCNC(=O)c4cccnc4)cnc3c2c1` (stereo unspecified), the figure is 204 to 210 °C; as for `CCCc1c(OCCCOCCCOc2c(C(C)=O)ccc(OCC(=O)O)c2CCC)ccc(C(C)=O)c1O`, 86 to 90 °C.
In turn, `CCc1cccc(-c2cn(C)cc(-c3ccccc3)c2=O)c1` yielded a melting point of 135 to 137 °C.
Then `COc1cccc2c1nc(C1CC1)n2CC=C(C)C`, with 41 to 42 °C; and `OC(c1ccc(Cl)cc1)(c1ccc(Cl)cc1)c1nccn1Cc1ccc(Cl)cc1`, with 171 to 173 °C; and `O=C1CCCc2sc(-c3ccncc3)cc21`, with 156 to 158 °C.
As for `CC(SC1COC(C=CC=Cc2ccc(C#N)cc2F)OC1)C(O)(Cn1cncn1)c1ccc(F)cc1F` (stereo unspecified), the figure is 111 to 112 °C; as for `CC(=O)OCC1OC(n2c(=O)sc3cnc(N)nc32)C(OC(C)=O)C1OC(C)=O` (stereo unspecified), 121 to 123 °C; as for `CC(C)(C)OC(=O)CC1CC(C=O)OC(C)(C)O1` (stereo unspecified), 71 to 73 °C.
The compound `CCOc1ccc(/C=C(\NC(=O)c2ccc(OCC(C)C)cc2)C(=O)NCCO)cc1` came in with a melting point of 124 to 125 °C.
For `CCCc1nc2c(N)nc3cc(OCCN4CCOCC4)ccc3c2s1`, the melting point is 122 to 125 °C.
The compound `CC1Cc2cc(S(=O)(=O)n3cc(-c4ccccc4)[nH]c3=O)ccc2N1C(=O)CCl` (stereo unspecified) gave a melting point of 157 to 159 °C.
For the compound `O=C(Cn1nnnc1-c1ccccc1)OCCO`, the melting point fell in the range of 54 to 55 °C.
Regarding `Cc1cc(OCc2nc(-c3ccc(C(F)(F)F)cc3)no2)ccc1OC(C)(C)C(=O)O`, the melting point came out at 170 °C.
The compound `CCOC(=O)C[C@@H](NC(=O)/C=C/S(=O)(=O)c1ccccc1)C(=O)OCC` came in with a melting point of 112 to 115 °C.
Regarding `Cc1ccc(-c2nc(CCl)co2)o1`, the melting point lay within 93 to 94 °C.
